# Assay results as given in the supplement of paper PMC10307832.
# Assays:
# Experiment in all cases: relative viability (nuclei count vs DMSO), 5 days (fraction); higher = more cells survive
# [1] = system: NCI-H1666
# How it was run: (§1)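 Lung cancer cell lines in 1536-well plates got either a single drug or a fixed anchor-drug dose together with five library-drug doses (not always all listed) in √10 steps, by pin tool, on the day after seeding. Nuclei were counted after 5 days, and relative viability is the treated-to-vehicle ratio of nuclei counts. Values are medians of duplicate plates.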
# [2] = system: NCI-H2347
# How it was run: as §1
# [3] = system: ABC-1
# How it was run: as §1
# [4] = system: SW 1573
# How it was run: as §1
# [5] = system: LK-2
# How it was run: as §1
# [6] = system: NCI-H1355
# How it was run: as §1
# [7] = system: NCI-H727
# How it was run: as §1
# [8] = system: NCI-H1755
# How it was run: as §1
# [9] = system: HCC-44
# How it was run: as §1
# [10] = system: NCI-H1650
# How it was run: as §1
# [11] = system: NCI-H358
# How it was run: as §1
# [12] = system: 201T
# How it was run: as §1
# [13] = system: NCI-H838
# How it was run: as §1
# [14] = system: UMC-11
# How it was run: as §1
# [15] = system: NCI-H2228
# How it was run: as §1
# [16] = system: BEN
# How it was run: as §1
# [17] = system: NCI-H1734
# How it was run: as §1
# [18] = system: NCI-H520
# How it was run: as §1
# [19] = system: LOU-NH91
# How it was run: as §1
# [20] = system: NCI-H2009
# How it was run: as §1
# [21] = system: NCI-H2405
# How it was run: as §1
compound,measurement,setting,value
O=c1[nH]c2ccccc2n1C1CCN(CCCC(c2ccc(F)cc2)c2ccc(F)cc2)CC1 [Pimozide] + CCNC(=O)c1noc(-c2cc(C(C)C)c(O)cc2O)c1-c1ccc(CN2CCOCC2)cc1 [Luminespib] (partner 0.01 µM),relative viability,[1]; first compound 0.08 µM,0.922
same,relative viability,[1]; first compound 0.253 µM,1.03
same,relative viability,[1]; first compound 0.8 µM,0.979
same,relative viability,[1]; first compound 2.53 µM,0.942
same,relative viability,[1]; first compound 8 µM,0.932
same,relative viability,[2]; first compound 0.253 µM,0.3
same,relative viability,[2]; first compound 0.8 µM,0.374
same,relative viability,[2]; first compound 2.53 µM,0.582
same,relative viability,[2]; first compound 8 µM,0.266
same,relative viability,[3]; first compound 0.08 µM,0.75
same,relative viability,[3]; first compound 0.253 µM,0.519
same,relative viability,[3]; first compound 0.8 µM,0.367
same,relative viability,[3]; first compound 2.53 µM,0.675
same,relative viability,[3]; first compound 8 µM,0.433
same,relative viability,[4]; first compound 0.08 µM,0.214
same,relative viability,[4]; first compound 0.253 µM,0.301
same,relative viability,[4]; first compound 0.8 µM,0.188
same,relative viability,[4]; first compound 2.53 µM,0.223
same,relative viability,[4]; first compound 8 µM,0.198
same,relative viability,[5]; first compound 0.08 µM,0.18
same,relative viability,[5]; first compound 0.253 µM,0.165
same,relative viability,[5]; first compound 2.53 µM,0.18
same,relative viability,[5]; first compound 8 µM,0.188
same,relative viability,[6]; first compound 0.08 µM,0.728
same,relative viability,[6]; first compound 0.253 µM,0.63
same,relative viability,[6]; first compound 0.8 µM,0.633
same,relative viability,[6]; first compound 2.53 µM,0.557
same,relative viability,[6]; first compound 8 µM,0.642
same,relative viability,[7]; first compound 0.08 µM,0.321
same,relative viability,[7]; first compound 0.253 µM,0.3
same,relative viability,[7]; first compound 0.8 µM,0.297
same,relative viability,[7]; first compound 2.53 µM,0.593
same,relative viability,[7]; first compound 8 µM,0.25
same,relative viability,[8]; first compound 0.08 µM,0.433
same,relative viability,[8]; first compound 0.253 µM,0.418
same,relative viability,[8]; first compound 0.8 µM,0.373
same,relative viability,[8]; first compound 2.53 µM,0.526
same,relative viability,[8]; first compound 8 µM,0.476
same,relative viability,[9]; first compound 0.08 µM,1.17
same,relative viability,[9]; first compound 0.253 µM,1.02
same,relative viability,[9]; first compound 0.8 µM,0.953
same,relative viability,[9]; first compound 2.53 µM,0.994
same,relative viability,[9]; first compound 8 µM,1.01
same,relative viability,[10]; first compound 0.08 µM,0.206
same,relative viability,[10]; first compound 0.253 µM,0.204
same,relative viability,[10]; first compound 0.8 µM,0.187
same,relative viability,[10]; first compound 2.53 µM,0.187
same,relative viability,[10]; first compound 8 µM,0.199
same,relative viability,[11]; first compound 0.08 µM,0.317
same,relative viability,[11]; first compound 0.253 µM,0.382
same,relative viability,[11]; first compound 0.8 µM,0.333
same,relative viability,[11]; first compound 2.53 µM,0.399
same,relative viability,[11]; first compound 8 µM,0.206
same,relative viability,[12]; first compound 0.08 µM,1.05
same,relative viability,[12]; first compound 0.253 µM,1.02
same,relative viability,[12]; first compound 0.8 µM,0.971
same,relative viability,[12]; first compound 2.53 µM,0.961
same,relative viability,[12]; first compound 8 µM,0.912
same,relative viability,[13]; first compound 0.08 µM,0.263
same,relative viability,[13]; first compound 0.253 µM,0.379
same,relative viability,[13]; first compound 0.8 µM,0.309
same,relative viability,[13]; first compound 2.53 µM,0.296
same,relative viability,[13]; first compound 8 µM,0.244
same,relative viability,[14]; first compound 0.08 µM,1.2
same,relative viability,[14]; first compound 0.253 µM,1.03
same,relative viability,[14]; first compound 0.8 µM,0.976
same,relative viability,[14]; first compound 2.53 µM,1.11
same,relative viability,[14]; first compound 8 µM,1.18
same,relative viability,[15]; first compound 0.08 µM,0.116
same,relative viability,[15]; first compound 0.253 µM,0.149
same,relative viability,[15]; first compound 0.8 µM,0.152
same,relative viability,[15]; first compound 2.53 µM,0.18
same,relative viability,[15]; first compound 8 µM,0.122
same,relative viability,[16]; first compound 0.08 µM,0.3
same,relative viability,[16]; first compound 0.253 µM,0.413
same,relative viability,[16]; first compound 0.8 µM,0.324
same,relative viability,[16]; first compound 2.53 µM,0.368
same,relative viability,[16]; first compound 8 µM,0.331
same,relative viability,[17]; first compound 0.08 µM,0.168
same,relative viability,[17]; first compound 0.253 µM,0.17
same,relative viability,[17]; first compound 2.53 µM,0.154
same,relative viability,[17]; first compound 8 µM,0.374
same,relative viability,[18]; first compound 0.08 µM,0.227
same,relative viability,[18]; first compound 0.253 µM,0.219
same,relative viability,[18]; first compound 0.8 µM,0.194
same,relative viability,[18]; first compound 2.53 µM,0.227
same,relative viability,[18]; first compound 8 µM,0.219
same,relative viability,[19]; first compound 0.08 µM,0.377
same,relative viability,[19]; first compound 0.253 µM,0.345
same,relative viability,[19]; first compound 0.8 µM,0.399
same,relative viability,[19]; first compound 2.53 µM,0.359
same,relative viability,[19]; first compound 8 µM,0.313
same,relative viability,[20]; first compound 0.08 µM,0.984
same,relative viability,[20]; first compound 0.253 µM,1.01
same,relative viability,[20]; first compound 0.8 µM,0.981
same,relative viability,[20]; first compound 2.53 µM,1.05
same,relative viability,[20]; first compound 8 µM,0.842
same,relative viability,[21]; first compound 0.08 µM,0.654
same,relative viability,[21]; first compound 0.253 µM,0.717
same,relative viability,[21]; first compound 0.8 µM,0.618
same,relative viability,[21]; first compound 2.53 µM,0.559
same,relative viability,[21]; first compound 8 µM,0.315
